Laboratory results from patent US20140371304A1, “METHOD FOR SUPPRESSING TUMORIGENICITY OF STEM CELLS” (SUCAMPO AG, priority 2013, published 2014).

Tested on: C57/BL6 mouse embryonic stem cells
Assay: Tumor formation in SCID-beige mice from mouse embryonic stem cells pre-treated with compound
Format: in vivo
Conditions: for Weight of kidney capsule tumor, mean / Volume of kidney capsule tumor, (after harvesting) mean / Volume of kidney capsule tumor, (within mice) mean / Weight of testis tumor, mean / Volume of testis tumor, (after harvesting) mean / Volume of testis tumor, (within mice) mean: MES cells treated with 1 micromolar for total 120 hrs, 1×10^6 cells/site injected to Fox Chase SCID-beige mice, 3 weeks post injection; for Weight of kidney capsule tumor, mean / Weight of testis tumor, mean: after harvesting; for Volume of kidney capsule tumor, (after harvesting) mean / Volume of testis tumor, (after harvesting) mean: measured after harvesting; for Volume of kidney capsule tumor, (within mice) mean / Volume of testis tumor, (within mice) mean: measured before harvesting; for tumorigenic potential of mouse ES cells: conclusion in words; for tumorigenic potential of mouse ES cells / volume and weight of the tumor tissues in kidneys and testes: MES cells treated with 1 micromolar, injected to SCID-beige mice; for volume and weight of the tumor tissues in kidneys and testes: result in words
Protocol: ESGRO COMPLETE™ C57/BL6 mouse embryonic stem cells (MES, Millipore # SF-CMTI-2) were grown in 0.1% gelatin coated T75 culture flasks using ESGRO complete serum free clonal grade medium (Millipore # SF001-B) and ESGRO complete supplement (Millipore # SF012-250, containing selective GSK3β inhibitor). Cells were treated for 96 hrs with either 1 micromolar of Compound-1 ((−)-7-[(2R,4aR,5R,7aR)-2-(1,1-difluoropentyl)-2-hydroxy-6-oxooctahydrocyclopenta[b]pyran-5-yl]heptanoic acid), Compound-2 ((+)-isopropyl (Z)-7-[(1R,2R,3R,5S)-3,5-dihydroxy-2-(3-oxodecyl)cyclopentyl]hept-5-enoate) or vehicle (0.1% DMSO) until they reached 60% confluence. Drugs and media were changed daily. Cells were incubated in the presence of freshly added drug for 96 hrs, and then tested for mycoplasma over the next 24 hrs. Therefore, the cells were exposed to vehicle or Compound-1 or -2 for a total of 120 hrs. The cells were harvested and mixed with 30% matrigel. The mixture was injected to Fox Chase SCID-beige mice at 1×10^6 cells/site Tumors were collected after 3 weeks of post injection from kidney and testis. Tumor volumes were measured before and after harvesting from the mice. Tumor weight was also measured after harvesting from mice.

Compound	Weight of kidney capsule tumor, mean [g]	Volume of kidney capsule tumor, (after harvesting) mean [cm^3]	Volume of kidney capsule tumor, (within mice) mean [cm^3]	Weight of testis tumor, mean [g]	Volume of testis tumor, (after harvesting) mean [cm^3]	Volume of testis tumor, (within mice) mean [cm^3]	tumorigenic potential of mouse ES cells	volume and weight of the tumor tissues in kidneys and testes
CCCCC(F)(F)[C@@]1(O)CC[C@H]2[C@@H](CC(=O)[C@@H]2CCCCCCC(=O)O)O1 [Compound-1, (−)-7-[(2R,4aR,5R,7aR)-2-(1,1-difluoropentyl)-2-hydroxy-6-oxooctahydrocyclopenta[b]pyran-5-yl]heptanoic acid]	1.40	2.10	5.6	1.87	3.70	10.42	greatly reduce	reduced
CCCCCCCC(=O)CC[C@@H]1[C@@H](C/C=C\CCCC(=O)OC(C)C)[C@@H](O)C[C@H]1O [Compound-2, (+)-isopropyl (Z)-7-[(1R,2R,3R,5S)-3,5-dihydroxy-2-(3-oxodecyl)cyclopentyl]hept-5-enoate]	2.13	5.44	9.12	1.33	2.68	5.66	greatly reduce	reduced
